From PMC12329534, “Sal is a proteobacterial bile acid aldolase that repurposes key thiolase catalytic residues for retroaldol cleavage of C5 steroid side chains” (The Journal of Biological Chemistry, 2025) come the findings set out here.

For orientation: Km means the substrate concentration at which the rate is half of its maximum. The term kcat denotes the number of substrate molecules converted per active site and unit of time at saturation. Broadly, the kcat/Km is the second-order rate constant that governs catalysis at low substrate concentration.

The target of data set [1] is T1, 17-β-hydroxysteroid dehydrogenase (Hsd4A) (Rhodococcus jostii, UniProt Q0S7K5).
T1 construct: isolated enzyme; construct not described in main text
T1 sequence (Q0S7K5 1-305): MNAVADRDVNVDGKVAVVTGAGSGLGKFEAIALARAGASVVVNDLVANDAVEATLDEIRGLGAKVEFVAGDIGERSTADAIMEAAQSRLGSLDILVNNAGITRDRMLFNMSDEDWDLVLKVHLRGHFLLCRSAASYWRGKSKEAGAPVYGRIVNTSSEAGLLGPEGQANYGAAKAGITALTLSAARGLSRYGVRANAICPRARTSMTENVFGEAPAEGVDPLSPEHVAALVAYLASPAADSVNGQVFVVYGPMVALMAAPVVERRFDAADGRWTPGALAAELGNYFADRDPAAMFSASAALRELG
Description: LC-MS/MS of product; NADH formation at […] nm. To be noted: 1 mM NAD+; substrate made in situ from cholyl-enoyl-CoA by CtShy–CtSal; 100 mM HEPES pH 7.5, 25 °C or 50 mM ammonium acetate pH 7.4. Type of data set: biochemical.

Data set [2] deals with T2, CtShy–CtSal complex (CtSal steroid aldolase activity) (Comamonas testosteroni, UniProt B7X4S8).
T2 construct: gene CtesDRAFT_PD3654; full-length CtShy–CtSal complex co-expressed in E. coli BL21 LOBSTR, His-tag purified; heterotetramer, 160 kDa by SEC (CtShy 35 kDa, CtSal 46 kDa); with Steroid hydratase Shy (DUF35/OB-fold and MaoC domain-containing protein)
T2 sequence (B7X4S8 1-404): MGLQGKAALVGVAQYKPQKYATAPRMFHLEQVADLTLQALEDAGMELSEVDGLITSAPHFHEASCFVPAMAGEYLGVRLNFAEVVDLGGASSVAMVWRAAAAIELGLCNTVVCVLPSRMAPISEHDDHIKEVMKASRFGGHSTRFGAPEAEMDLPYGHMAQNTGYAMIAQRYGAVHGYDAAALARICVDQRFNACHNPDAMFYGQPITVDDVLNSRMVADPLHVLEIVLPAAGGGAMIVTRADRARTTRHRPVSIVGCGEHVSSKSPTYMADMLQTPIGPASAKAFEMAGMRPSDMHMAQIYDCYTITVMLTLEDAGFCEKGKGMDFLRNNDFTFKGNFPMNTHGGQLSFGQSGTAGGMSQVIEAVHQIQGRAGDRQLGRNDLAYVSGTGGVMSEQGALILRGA
T2 sequence (B7X4S7 1-312 partner): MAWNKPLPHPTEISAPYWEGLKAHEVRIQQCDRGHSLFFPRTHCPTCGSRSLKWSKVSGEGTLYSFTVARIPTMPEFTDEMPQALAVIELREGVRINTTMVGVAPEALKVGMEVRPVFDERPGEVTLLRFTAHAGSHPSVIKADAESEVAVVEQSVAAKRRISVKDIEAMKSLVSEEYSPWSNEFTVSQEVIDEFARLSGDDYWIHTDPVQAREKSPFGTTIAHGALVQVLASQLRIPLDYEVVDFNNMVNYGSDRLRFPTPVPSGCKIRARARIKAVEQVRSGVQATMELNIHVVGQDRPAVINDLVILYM
Briefly: CtSad-coupled NADH formation at […] nm. Type of data set: biochemical. Conditions: apparent; 1 mM NAD+ and 7 nM CtSad for coupling, 100 mM HEPES pH 7.5, 25 °C.

In data set [3] the target is T3, CtShy–CtSal complex (CtShy steroid hydratase activity) (Comamonas testosteroni, UniProt B7X4S7).
T3 construct: gene CtesDRAFT_PD3653; full-length CtShy–CtSal complex from E. coli BL21 LOBSTR, His-tag purified; MaoC domain of CtShy is the hydratase domain; with Steroid aldolase Sal (thiolase-like protein)
T3 sequence (B7X4S7 1-312): T2 sequence (B7X4S7 1-312 partner)
Briefly: LC-MS/MS of products; Hsd4A-coupled NADH end point. It counts as biochemical. Conditions: 50 mM ammonium acetate pH 7.4 (LC-MS) or 100 mM HEPES pH 7.5, 25 °C; NAD+ and excess Hsd4A.

Data set [4] relates to T4, C[C@H](C(O)CC(=O)SCCNC(=O)CCNC(=O)[C@H](O)C(C)(C)COP(=O)(O)OP(=O)(O)OC[C@H]1O[C@@H](n2cnc3c(N)ncnc32)[C@H](O)[C@@H]1OP(=O)(O)O)[C@H]1CC[C@H]2[C@@H]3[C@H](O)C[C@@H]4C[C@H](O)CC[C@]4(C)[C@H]3C[C@H](O)[C@]12C.
T4 construct: full-length CtShy–CtSal complex co-expressed in E. coli BL21 LOBSTR, His-tag purified; heterotetramer, 160 kDa by SEC (CtShy 35 kDa, CtSal 46 kDa); with Steroid hydratase Shy (DUF35/OB-fold and MaoC domain-containing protein)
Description: purified protein. Conditions: apparent, 1 mM NAD+ and 7 nM CtSad for coupling, 100 mM HEPES pH 7.5, 25 °C. It counts as biochemical, Comamonas testosteroni.

Take `C[C@H](C(O)CC(=O)SCCNC(=O)CCNC(=O)[C@H](O)C(C)(C)COP(=O)(O)OP(=O)(O)OC[C@H]1O[C@@H](n2cnc3c(N)ncnc32)[C@H](O)[C@@H]1OP(=O)(O)O)[C@H]1CC[C@H]2[C@@H]3[C@H](O)C[C@@H]4C[C@H](O)CC[C@]4(C)[C@H]3C[C@H](O)[C@]12C` (stereo partly drawn) [Cholyl-22-OH-CoA]: the “LC-MS/MS of product; NADH formation at 340 nm” value in data set [1] was “Hsd4A effectively sequestered the CtShy product to form cholyl-22-oxo-CoA”. Further, the Km in data set [2] came out at 8.12 ± 0.477 µM.
Turning to `C[C@H](/C=C/C(=O)SCCNC(=O)CCNC(=O)[C@H](O)C(C)(C)COP(=O)(O)OP(=O)(O)OC[C@H]1O[C@@H](n2cnc3c(N)ncnc32)[C@H](O)[C@@H]1OP(=O)(O)O)[C@H]1CC[C@H]2[C@@H]3[C@H](O)C[C@@H]4C[C@H](O)CC[C@]4(C)[C@H]3C[C@H](O)[C@]12C` [cholyl-enoyl-CoA], the “LC-MS/MS of products; Hsd4A-coupled NADH end point” value in data set [3] was “Hsd4A effectively sequestered the CtShy product to form cholyl-22-oxo-CoA”.
In the case of “CtShy–CtSal complex (CtSal steroid aldolase activity) (Comamonas testosteroni KF-1; R216A)”, in data set [4], the Km came out at 41.4 ± 1.29 µM, the kcat was determined as 11.6 ± 0.15 s⁻¹ and the kcat/Km stood at 281000 ± 876 M⁻¹ s⁻¹.
